{
  "source": "patent US20140357706A1",
  "about": "“Stearate Compounds” (THE UAB RESEARCH FOUNDATION, priority 2011, published 2014)",
  "key": {"[1]": {"system": "human ovarian granulosa cells", "conditions": "50 μM for 3 days; cited from earlier work"}, "[2]": {"system": "3T3L1 preadipocytes", "test": "Cell death and apoptosis of 3T3L1 preadipocytes (trypan blue, LDH, flow cytometry)", "type": "cell-based, mouse", "conditions": "50 μM, vs control", "method": "(§1) 50 μM of stearate, oleate or linoleate was used to treat 3T3L1 cells as this concentration is centered within the normal range for non-esterified stearate in the plasma of humans. Stearate, oleate, or linoleate was loaded onto fatty acid free BSA according to the method reported by Spector and Hoak (Spector and Hoak, 1969). Briefly, stearate (0.5 g) was dissolved in chloroform (100 mL) and mixed well with 10 g diatomaceous earth in a 1 liter flask. The mixture was stirred and dried under nitrogen until powder. Fatty acid free BSA (1 g) was dissolved in 100 mL with DMEM without phenol red and mixed with 3 g of the stearate/diatomaceous earth mixture and stirred for 30 minutes. The stearate/BSA solution was filtered through a 0.45 μm filter, and adjusted to pH 7.4. The concentration of stearate in the solution was detected by use of a NEFA C kit. Oleic and linoleate were loaded in the same way. […] Before the treatment with fatty acid, 3T3L1 preadipocytes were grown to 100%, and were starved in 2% FBS medium for 24 hours.\n(§2) After treatment, 3T3L1 cells were harvested, washed with cold PBS, and then resuspended in 100 μl annexin-binding buffer (50 mM HEPES, 700 mM NaCl, 12.5 mM CaCl2, pH 7.4). Cell density was determined, and the cells were diluted to 10^6 cells. Then 5μL of Alex Fluo 488 annexin V and 1 μL propidium iodide (PI) were added. Cells were gently oscillated and incubated for 15 min at room temperature. After adding 400 μL of binding buffer to each tube, cells were kept on ice and analyzed by flow cytometry within 1 hour. Cells that stained positive for Alex Fluo 488 annexin V and negative for PI were considered to be apoptotic. Cells that stained positive for both Alex Fluo 488 annexin V and PI were considered either in the end stage of apoptosis, or necrosis. Cells that stained negative for both Alex Fluo 488 annexin V and PI were considered alive and not undergoing measurable apoptosis. A BD LSR II flow cytometer from Becton Dickinson was used in all flow experiments and the data were analyzed with BD FACSDiva™ software V.6.1.3.\n(§3) Lactate dehydrogenase (LDH) release was measured using a cytotoxicity detection kit, according to the manufacture's protocol. After 3T3L1 cells were treated, 1 ml of cell culture medium was removed and centrifuged. The supernatant was retained for assaying. For determinations, 100 μl of LDH assay reagent was added to 100 μl of supernatant and incubated for 30 min at room temperature in the dark. Absorbance was measured at 490 nm. Background release from culture medium alone was subtracted before reporting. Maximum release was measured after adding 2% Triton X-100 to untreated cells.\n(§4) After treatment, 3T3L1 cells were harvested and stained with 0.4% trypan blue solution. Cells in the four corners of the grid were counted under a conventional bright field binocular microscope."}, "[3]": {"system": "Rho", "test": "Rho activation assay in Hs578T cells", "type": "cell-based, human", "conditions": "all time points, especially 16 and 24 h post-EGF stimulation; vs controls", "method": "The concentration of stearate used to treat the Hs578T cells was 50 μM. When EGF was used, the concentration was 1 nM EGF. Before the treatment with stearate or EGF, cells were first starved for 24-48 hours. Stearate was loaded onto fatty acid-free bovine serum albumin (BSA) according to the method reported by Spector et al. (13); briefly, stearate (0.5 g) was dissolved in chloroform (100 ml) and mixed well with 10 g diatomaceous earth in a 1 liter flask. The mixture was stirred and dried under nitrogen until powder. BSA is a physiological carrier of fatty acids and was used to avoid the introduction of organic solvents to solutions coming into contact with cells. Fatty acid-free BSA (1 g) was dissolved in 100 ml with Dulbecco's modified Eagle's medium without phenol red and mixed with 3 g of the stearate/diatomaceous earth mixture with stirring for 45 min. The stearate/BSA solution was filtered through a 0.45 μm filter, and adjusted to pH 7.4. The concentration of stearate in the solution was detected with the NEFA C Kit from Wako Chemicals GmbH (Neuss, Germany). […]\nRas and Rho activation assay kits were purchased from Millipore (Billerica, Mass.). […] The beads were washed three times with lysis buffer B. Bound Ras-GTP and Rho-GTP proteins were detected by immunoblot using Ras and Rho antibodies."}, "[4]": {"system": "differentiated 3T3L1 adipocytes", "test": "Necrosis and apoptosis of differentiated 3T3L1 adipocytes (trypan blue, LDH, flow cytometry)", "type": "cell-based, mouse", "conditions": "50 μM", "method": "3T3L1 mouse fibroblast cells (ATCC, CL-173™) were maintained according to the manufacture's protocol, in Dulbecco's modified eagle's medium (DMEM) containing 10% Fetal Bovine Serum and antibiotics (M1 medium). Adipocyte differentiation was performed according to standard procedures (42). Briefly, the 3T3L1 fibroblasts were seeded at 30% confluence and allowed to grow to near 100% confluence. On the day after reaching maximum confluence, conversion was induced by replacing the M1 medium with M1 medium containing insulin (5 μg/ml), dexamethasone (0.25 μM), and 3-isobutyl-1-methyl-xanthine (0.5 mM). After 2 days, the cells were changed to M1 medium with insulin (5 μg/ml) for an additional 2 days. Thereafter, the cells were maintained in M1 medium without additives for 2 days.\nas §1, §2, §3, §4"}, "[5]": {"system": "caspase-3", "test": "Caspase-3 activity assay in 3T3L1 preadipocytes", "type": "cell-based, mouse", "conditions": "48 hours treatment", "method": "50 μM of stearate, oleate or linoleate was used to treat 3T3L1 cells as this concentration is centered within the normal range for non-esterified stearate in the plasma of humans. Stearate, oleate, or linoleate was loaded onto fatty acid free BSA according to the method reported by Spector and Hoak (Spector and Hoak, 1969). Briefly, stearate (0.5 g) was dissolved in chloroform (100 mL) and mixed well with 10 g diatomaceous earth in a 1 liter flask. The mixture was stirred and dried under nitrogen until powder. Fatty acid free BSA (1 g) was dissolved in 100 mL with DMEM without phenol red and mixed with 3 g of the stearate/diatomaceous earth mixture and stirred for 30 minutes. The stearate/BSA solution was filtered through a 0.45 μm filter, and adjusted to pH 7.4. The concentration of stearate in the solution was detected by use of a NEFA C kit. Oleic and linoleate were loaded in the same way. All experimental data on 3T3L1 cells were confirmed using fatty acid free BSA control solutions that were put through the same preparatory procedure described except for the fact that no fatty acid was added. Before the treatment with fatty acid, 3T3L1 preadipocytes were grown to 100%, and were starved in 2% FBS medium for 24 hours.\nCaspase-3 activity was measured using the EnzCheck Capase-3 Activity Kit #1 according to the manufacturer's instructions (Molecular Probes Inc. Eugene, Oreg.)."}},
  "data": [
    {"smiles": "CCCCCCCCCCCCCCCCCC(=O)O", "note": "[stearate, Stearic acid]", "values": [
      {"measurement": "Cell viability", "setting": "[1]", "result": "no decrease"},
      {"measurement": "Percentage of dead cells (trypan blue)", "setting": "[2]; 48 hour treatment", "result": "significantly increased"},
      {"measurement": "Dead cells (flow cytometry)", "setting": "[2]; 48 hours", "result": "increase"},
      {"measurement": "Cytotoxicity (lactate dehydrogenase)", "setting": "[2]; after 24 hours", "result": "significantly increased"},
      {"measurement": "Apoptotic cells (flow cytometry)", "setting": "[2]", "result": "significantly increased"},
      {"measurement": "Rho-GTP", "setting": "[3]", "result": "decreased"},
      {"measurement": "Cytotoxicity (lactate dehydrogenase in medium)", "setting": "[4]", "result": "no significant changes"},
      {"measurement": "Percentage of apoptotic cells (flow cytometry)", "setting": "[4]", "result": "no significant changes"},
      {"measurement": "Percentage of dead cells (flow cytometry)", "setting": "[4]", "result": "no significant changes"},
      {"measurement": "Percentage of dead cells (trypan blue)", "setting": "[4]", "result": "no significant changes"},
      {"measurement": "Caspase-3 activity", "setting": "[5]", "result": "increased significantly"}
    ]}
  ]
}
